Data on four molecules can be found in patent US20220125839A1, “COMBINATION OF T-CELL THERAPY AND TARGETED THERAPY FOR TREATING THERAPY-RESISTANT MELANOMA WITH MUTATIONS IN THE BRAF GENE” (H. LEE MOFFITT CANCER CENTER AND RESEARCH INSTITUTE, INC., priority 2019, published 2022).

The test system of one experiment is lung cancer and lymphoma. The settings on record: models of lung cancer and lymphoma; cited from earlier work.
Another experiment concerns M6PR. The experiment in a line: M6PR expression by flow cytometry in different melanoma cell lines treated with dabrafenib. The settings on record: 16 hr, 1 μM or 5 μM. In kind it is cell-based, human. The method, then:
FIGS. 4A and 4B show WM35 cells resistant to PLX4720. […] Cell viability was measured in experimental replicates in MTT test after 2 and 4 days of treatment. Mean and SD are shown. FIG. 4B show the effect of Dabrafenib on the expression of M6PR. Indicated cells were treated with dabrafenib for 16 hr (1 μM or 5 μM) and M6PR expression was evaluated by flow cytometry. Mean and SD are shown. P values were calculated using two-sided Student's t-test; *-p<0.05; ** p<0.01; ***-p<0.001; ****-p<0.0001 from DMSO treated controls.
M6PR expression levels were detected by flow cytometry. Cells were incubated with Aqua dead cell staining kit (Thermo Fischer Scientific; Cat. no. L34957) for 15 min at 4° C., followed by staining with Alexa Fluor 647-conjugated mouse antibody specific for human IGF2R/M6PR (BD Biosciences; Cat. no. 565105; clone no. MEM-238) or its isotype (BD Biosciences; Cat. no. 557732; clone no. MOPC-21) at 4° C. for 20 minutes. Cells were fixed using 1% paraformaldehyde for 20 minutes at 4° C. before running them on LSR14. Data was analyzed by FlowJo software (Tree Star).

The subject of experiment [1] is BRAFV600E mutant melanoma. The conditions noted are these: patients with BRAFV600E mutant melanoma; cited from earlier work.

The structures appear in SMILES notation.

For `N.N.[Cl][Pt][Cl]` [cisplatin], in the experiment on lung cancer and lymphoma, the “effect on anti-tumor effect of immunotherapy” value (“effect on anti-tumor effect” below) is recorded as “potentiate the anti-tumor effect of immunotherapy via up-regulation of M6PR on the tumor cell surface”.

Consider `COc1cccc2c1C(=O)c1c(O)c3c(c(O)c1C2=O)C[C@@](O)(C(=O)CO)C[C@@H]3O[C@H]1C[C@H](N)[C@H](O)[C@H](C)O1` [doxorubicin], for which the “effect on anti-tumor effect” value in the experiment with lung cancer and lymphoma is recorded as “potentiate the anti-tumor effect of immunotherapy via up-regulation of M6PR on the tumor cell surface”. Regarding `CC(=O)O[C@H]1C(=O)[C@@]2(C)[C@H]([C@H](OC(=O)c3ccccc3)[C@]3(O)C[C@H](OC(=O)[C@H](O)[C@@H](NC(=O)c4ccccc4)c4ccccc4)C(C)=C1C3(C)C)[C@]1(OC(C)=O)CO[C@@H]1C[C@@H]2O` [paclitaxel], the “effect on anti-tumor effect” value in the experiment with lung cancer and lymphoma is recorded as “potentiate the anti-tumor effect of immunotherapy via up-regulation of M6PR on the tumor cell surface”. `CC(C)(C)c1nc(-c2cccc(NS(=O)(=O)c3c(F)cccc3F)c2F)c(-c2ccnc(N)n2)s1` [dabrafenib]: the “expression of M6PR” value in the experiment on M6PR is given as “substantial up-regulation of the receptor”. The clinical responses entry in experiment [1] is recorded as “impressive clinical responses”.
